Results as given in US5622948A, “Pyrrole pyridazine and pyridazinone anti-inflammatory agents” (Syntex (U.S.A.) Inc., priority 1994, dated 1997).
Values joined by “and” are separate entries in the source; they are usually repeats but may differ in a detail not shown here. Identical values can stand only once. “Also recorded” adds a separate entry of the source.

Assays:
COX II [1] = molecular target: T1, COX II (Homo sapiens, UniProt P35354); experiment: radiometric assay, COX II inhibition (human recombinant, baculovirus expressed, partially purified); type: biochemical; design: A 1.8 Kb DNA fragment containing the coding region of human COX II was generated by PCR; made in house; host or cells: Sf9 insect cells, baculovirus
T1 sequence (P35354 18-604): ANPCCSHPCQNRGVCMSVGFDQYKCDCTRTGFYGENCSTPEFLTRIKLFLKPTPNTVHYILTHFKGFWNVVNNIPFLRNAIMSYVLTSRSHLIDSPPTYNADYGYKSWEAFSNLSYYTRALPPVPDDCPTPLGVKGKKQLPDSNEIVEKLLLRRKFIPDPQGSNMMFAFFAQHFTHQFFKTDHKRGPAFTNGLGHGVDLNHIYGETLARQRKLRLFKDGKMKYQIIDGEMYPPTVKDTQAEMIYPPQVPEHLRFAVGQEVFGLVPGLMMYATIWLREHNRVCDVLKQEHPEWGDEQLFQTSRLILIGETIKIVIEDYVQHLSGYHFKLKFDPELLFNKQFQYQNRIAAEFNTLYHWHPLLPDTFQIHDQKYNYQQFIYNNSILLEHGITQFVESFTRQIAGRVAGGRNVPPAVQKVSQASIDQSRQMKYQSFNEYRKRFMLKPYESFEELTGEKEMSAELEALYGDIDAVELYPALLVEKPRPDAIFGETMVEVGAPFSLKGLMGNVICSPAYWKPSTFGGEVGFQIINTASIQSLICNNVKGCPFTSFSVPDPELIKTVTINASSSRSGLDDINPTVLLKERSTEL
Outline: (§1)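 Partially purified baculovirus-expressed human enzyme preincubated with compound, 2 mM phenol (5 min) then 1 μM hematin (5 min). Reaction in Tris-HCl pH 7.9 with 20 μM 1-[14C]arachidonate for 45 s at room temperature, acid-stopped; oxygenated products isolated on Sep-Pak and counted by scintillation.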

COX I [2] = molecular target: T2, COX I (Homo sapiens, UniProt P23219); experiment: radiometric assay, COX I inhibition (human recombinant, baculovirus expressed, partially purified); type: biochemical; design: A 2 Kb fragment containing the coding region of COX I; made in house; host or cells: Sf9 insect cells, baculovirus (cDNA from Oxford Biomedical Research); conditions: 10 min incubation with compound; 45 sec incubation with 20 μM AA; separation of radioactive products; read-out: COX I IC50
T2 sequence (P23219 24-599): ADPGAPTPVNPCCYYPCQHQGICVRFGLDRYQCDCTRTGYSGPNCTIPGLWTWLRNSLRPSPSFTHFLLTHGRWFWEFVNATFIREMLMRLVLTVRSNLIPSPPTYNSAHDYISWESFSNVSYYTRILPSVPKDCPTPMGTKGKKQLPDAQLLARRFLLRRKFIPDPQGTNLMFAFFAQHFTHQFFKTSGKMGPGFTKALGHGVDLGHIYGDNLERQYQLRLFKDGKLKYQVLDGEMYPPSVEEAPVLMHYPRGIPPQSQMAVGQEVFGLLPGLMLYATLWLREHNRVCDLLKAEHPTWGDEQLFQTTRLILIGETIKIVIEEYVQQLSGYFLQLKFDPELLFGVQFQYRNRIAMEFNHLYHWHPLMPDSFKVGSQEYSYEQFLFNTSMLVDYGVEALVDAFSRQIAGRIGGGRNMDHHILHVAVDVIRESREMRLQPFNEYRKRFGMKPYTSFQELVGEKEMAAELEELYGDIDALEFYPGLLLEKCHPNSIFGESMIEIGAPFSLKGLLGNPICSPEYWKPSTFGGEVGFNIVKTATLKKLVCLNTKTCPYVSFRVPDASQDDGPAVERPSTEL
Outline: as §1

[3] = test system: phenylquinone-induced writhing; experiment: Phenylquinone-induced Mouse Writhing Assay; type: in vivo; conditions: 20 or 60 minutes prior to phenylquinone
Method: Analgetic activity is determined by the Phenylquinone-induced Mouse Writhing Assay, Hendershot, et al., J. Pharmacol. Exp. Ther., 125:237-240 (1959). This assay is one of several acute assays which have been used to assess the analgesic activity of NSAIDs. At the appropriate time after test material administration, phenylquinone is injected intraperitoneally to mice, inducing a series of characteristic "writhing" responses, which are counted between 10 and 20 minutes after phenylquinone injection.
In this assay, Compound (16), suspended in SSV, was tested over the dose range of 1-100 mg/kg administered 20 or 60 minutes prior to phenylquinone challenge.

COX II [4] = molecular target: T1, COX II; experiment: PGE2 production in human adherent monocytes stimulated with LPS; type: cell-based; conditions: EIA, read-out: COX II IC50, inhibition of PGE2 production
Method: (§2) A summary of activities of Compound (16) against COX I and COX II in cell-free enzyme preparations and whole cells is presented in Table 1. The following abbreviations are used: AA is arachidonic acid, IL-1 is interleukin 1, PMA is phorbol myristate acetate, A23187 is a calcium ionophore (Sigma), BSA is bovine serum albumin and LPS is a lipopolysaccharide (Sigma).
Human adherent monocytes
(§3) 30 min incubation with Compound (16)
18 hr stimulation with LPS
a) 10 min activation, A23187 + PMA
washing, transfer to fresh media
b) 30 min activation, A23187 + PMA
c) 10 min activation, 20 μM AA
d) 30 min activation, 20 μM AA
EIA determination of PGE2

COX I [5] = molecular target: T2, COX I; experiment: thromboxane B2 production in washed human platelets; type: cell-based; design: A 2 Kb fragment containing the coding region of COX I; made in house; host or cells: Sf9 insect cells, baculovirus (cDNA from Oxford Biomedical Research); conditions: EIA, read-out: COX I IC50, inhibition of thromboxane B2 production
Method: as §2, §3
b) 10 min activation, 20 μM AA
EIA determination of TxB2

[6] = Pharmacokinetics in rat and monkey; type: in vivo
Source text: The pharmacokinetics of Compound (16) was studied in rat and monkey after intravenous and oral administration in solution (ethanol/polyethylene glycol/water, 1/5/4) or SSV.

COX II [7] = molecular target: T1, COX II; experiment: TxB2 production in human whole blood activated with lipopolysaccharide (COX II); type: cell-based; conditions: 5 hr incubation with compound and 10 μg/ml LPS; RIA determination of TxB2; read-out: COX II IC50, inhibition of TxB2 production

In the case of `Cc1cc(Cc2ccc(=O)[nH]n2)n(C)c1C(=O)c1ccc(Cl)cc1` [Compound 16, 6-[1,4-dimethyl-5-(4chloro-benzoyl)-1H-pyrrol-2-ylmethyl]-2H-pyridazin-3-one], the “type of inhibition of COX II” value (COX II [1]) is reported as “potent, time-dependent, reversible inhibition”, the IC50 (COX II [1]; 10 min incubation with compound, 45 sec incubation with 20 μM AA, separation of radioactive products, read-out: COX II IC50) is reported as 0.58 to 0.9 µM and 0.58 µM and 0.9 µM and 0.64 µM and the “selectivity for COX II” value (COX II [1]; COX II over COX I) is reported as “significantly more selective for COX II than currently available NSAIDs; also recorded: highly selective for COX II”. The IC50 (COX I [2]) was > 1000 µM, the “inhibition of phenylquinone-induced writhing” value ([3]; 100 mg/kg, in SSV) was 100% and the ED50 ([3]; Mus musculus, 1-100 mg/kg) was ~10 mg/kg. For the same compound, the IC50 (COX II [4]; 30 min incubation; a) 10 min activation, A23187 + PMA) was 0.2 µM, the IC50 (COX II [4]; 30 min incubation; b) 30 min activation, A23187 + PMA) was < 0.1 µM and the IC50 (COX II [4]; 30 min incubation; c) 10 min activation, 20 μM AA) was 2.8 µM. For the same compound, the IC50 (COX II [4]; 30 min incubation; d) 30 min activation, 20 μM AA) was 0.54 µM, the IC50 (COX I [5]; 30 min incubation; a) 10 min activation, A23187 (calcium ionophore)) was 2.3 µM and the IC50 (COX I [5]; 30 min incubation; b) 10 min activation, 20 μM AA) was > 100 µM. The dose proportionality ([6]; 1-300 mg/kg) was “exhibited dose proportionality over a broad range of doses”, the half-life ([6]; in vivo, after intravenous dosing) was 2 to 3 h and the bioavailability ([6]; in vivo, rats and monkeys, oral) was 40 to 80%. For the same compound, the IC50 (COX II [7]) was 4.7 µM and 4.56 µM.
